Reference: patent US9708323B2, “Tricyclic compounds as alpha-7 nicotinic acetylcholine receptor ligands” (BRISTOL-MYERS SQUIBB COMPANY, priority 2014, dated 2017)
Read-outs that look alike come from different tables or passages of the source.

Biological target: T1, α-7 nicotinic ACh receptor ion channel expressed in HEK 293 cells (Rattus norvegicus, UniProt Q05941)
T1 construct: expressed in transfected cells
Experiment: Ca2+-sensitive, fluorescence-based assay for α-7 nicotinic acetylcholine receptor channel function in mammalian cells (FLIPR)
Type: cell-based
Settings: read-out: FLIPR α7 (EC50)
Protocol: II) A Ca^2+-Sensitive, Fluorescence-Based Assay α-7 for Nicotinic Acetylcholine Receptor Channel Function in Mammalian Cells (“FLIPR”). Summary:
Lead compounds are evaluated for agonist activity at α-7, α3β4, α4αβ2, and α1β1δ1ε sub-types of nicotinic ACh receptor ion channels expressed in mammalian HEK 293 cells. Agonist potency and efficacy values are determined from kinetic fluorescence Ca^2+ influx measurements made using a 384 well FLIPR (Fluorescence Image Plate Reader). The utility of fluorescent indicators for measuring changes in intracellular divalent cation concentrations, particularly Ca^2+, for drug discovery endeavors is well documented (Rudiger, R., et al., Nature Reviews, 2003, 4:579-586; Gonzalez J. E., et al., Receptors and Channels, 2002, 8:283-295). In this assay, channel expressing HEK cell lines seeded in 384 well assay plates are loaded with a membrane permeant fluorescent Ca^2+ indicator dye, whose 510 nm green emission signal increases in response to elevation of intracellular Ca^2+ concentration. The basal fluorescence from the cells is monitored in real time, followed by the acute addition of test compounds. If the compound is an agonist at any of the non-selective cation channels, the latter open and allow the movement of extracellular Ca^2+ ions into the cell cytoplasm, where they bind to the Ca^2+ indicator dye, and produce an increase in fluorescence output signal, which is detected by a cooled CCD imaging camera.
Reagents: The acetomethoxy (AM) ester of the Ca^2+ indicator dye Fluo-4 was obtained from InVitrogen, (Carlsbad, Calif.). Acetylcholine and all buffer constituents were purchased from Sigma Chemical Company, St. Louis, Mo. G418 and Minimal Essential Medium were purchased from InVitrogen Life Technologies, Carlsbad, Calif. Fetal bovine serum was purchased from (InVitrogen, Carlsbad, Calif.).
HEK-293 cells were grown in Minimal Essential Medium containing 10% (v/v) fetal bovine serum at 37° C. in a 5% CO2 incubator. HEK-293 cells stably expressing the ion channels were grown in the same medium with the addition of 500 μg/ml G418.
HEK-293 cells expressing the ion channels of interest were plated in 384 well, black-walled, clear-bottomed, poly-D-lysine coated plates at a density of ˜20,000 cells/well in 20 μl of Minimal Essential Medium containing 10% (v/v) fetal bovine serum and incubated for 2 days at 29° C. in a 5% CO2 incubator. Prior to assay, cells were loaded with the Fluo-4 AM ester. Cell loading was accomplished by removing the culture medium and replacing it with 30 μl/well of the AM ester of the dye (5 μM) mixed with Hanks Balanced Salt Solution (#14175-095) containing 20 mM HEPES, 2.5 mM probenecid, 0.5 mM CaCl2, 1 mM MgCl2 and 10 μM atropine. Dye loading was allowed to proceed for 90 minutes at room temperature at which time the dye loading solution was removed and replaced with 40 μl/well of Hanks buffer. Cells loaded with dye were loaded onto a FLIPR384 (Molecular Devices, Sunnyvale, Calif.). Fluo-4 dye was excited using the 488 nm line of an argon laser. Emission was filtered using a 540+/−30 nm bandpass filter. For evaluation of the effects of test compounds using the Ca^2+ flux assay, compounds to be tested were provided in assay ready plates. For nicotinic receptor ion channel expressing cells, the assay was initiated by the addition of 20 μl/well of Hanks buffer containing test compounds. For all assays, data were collected at 1 Hz for 10 seconds (baseline), at which time the compound containing stimulus buffers are added, and further measurements collected at 0.33 Hz for 3 min.
The statistical robustness of the nicotinic receptor Ca^2+ flux assays is determined from blanks and totals wells. The totals wells define maximal channel activation for each compound test plate (Maximum efficacious dose of acetylcholine), and the blanks wells which contain matched DMSO only, define zero channel activation. […]

T1 sequence (Q05941 23-502): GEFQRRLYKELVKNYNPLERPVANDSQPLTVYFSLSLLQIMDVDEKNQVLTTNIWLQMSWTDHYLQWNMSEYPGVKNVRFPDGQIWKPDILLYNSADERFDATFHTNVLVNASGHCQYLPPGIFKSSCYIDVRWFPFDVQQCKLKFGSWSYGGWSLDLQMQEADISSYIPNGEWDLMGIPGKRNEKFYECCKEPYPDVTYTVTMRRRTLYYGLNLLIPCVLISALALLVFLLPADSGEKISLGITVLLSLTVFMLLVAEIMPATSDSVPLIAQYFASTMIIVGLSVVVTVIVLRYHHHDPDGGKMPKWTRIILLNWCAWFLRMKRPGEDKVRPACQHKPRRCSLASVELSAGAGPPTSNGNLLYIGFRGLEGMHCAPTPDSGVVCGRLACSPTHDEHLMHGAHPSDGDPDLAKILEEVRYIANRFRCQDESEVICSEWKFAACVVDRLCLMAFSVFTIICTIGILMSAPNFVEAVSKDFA

Structure (SMILES) | EC50 (Table 1, agonist Ca2+ flux) [µM] | further results
O=C(c1cc2cccc(Cl)c2s1)N1CC2CN3CCC2C1C3 (stereo not shown) [Example 1, (7-chlorobenzo[b]thiophen-2-yl)(hexahydro-3,6-methanopyrrolo[2,3-c]pyridin-1(2H)-yl)methanone] | 1.7 | –
O=C(c1cc2c(Cl)cccc2s1)N1C[C@@H]2C[N@@]3CC[C@@H]2[C@@H]1C3 [Example 106, 4-chlorobenzo[b]thiophen-2-yl((3S,3aS,6R,7aR)-hexahydro-3,6-methanopyrrolo[2,3-c]pyridin-1(2H)-yl)methanone] | – | EC50 (Table 3, agonist Ca2+ flux): > 100 µM
O=C(c1n[nH]c2ccccc12)N1CC2CCN3CCC2C1C3 (stereo not shown) [Example 114, (hexahydro-1H-1,6-methanopyrrolo[3,4-d]azepin-2(7H)-yl)(1H-indazol-3-yl)methanone] | – | EC50 (Table 4, agonist Ca2+ flux): 0.47 µM
O=C(c1cc2ccccc2o1)N1C[C@@H]2C[N@@]3CC[C@@H]2[C@@H]1C3 [Example 113, benzofuran-2-yl((3S,3aS,6R,7aR)-hexahydro-3,6-methanopyrrolo[2,3-c]pyridin-1(2H)-yl)methanone] | – | EC50 (Table 3, agonist Ca2+ flux): > 100 µM
Cn1nc(C(=O)N2C[C@H]3C[N@]4CC[C@H]3[C@H]2C4)c2ccccc21 [Example 90, ((3R,3aR,6S,7aS)-hexahydro-3,6-methanopyrrolo[2,3-c]pyridin-1(2H)-yl) (1-methyl-1H-indazol-3-yl)methanone] | – | EC50 (Table 2, agonist Ca2+ flux): > 100 µM
O=C(c1cc2ccccc2o1)N1C[C@H]2C[N@]3CC[C@H]2[C@H]1C3 [Example 99, benzofuran-2-yl((3R,3aR,6S,7aS)-hexahydro-3,6-methanopyrrolo[2,3-c]pyridin-1(2H)-yl)methanone] | – | EC50 (Table 2, agonist Ca2+ flux): 35 µM
O=C(c1ccc(Cl)cc1)N1C[C@H]2C[N@]3CC[C@H]2[C@H]1C3 [Example 98, (4-chlorophenyl) ((3R,3aR,6S,7aS)-hexahydro-3,6-methanopyrrolo[2,3-c]pyridin-1(2H)-yl)methanone] | – | EC50 (Table 2, agonist Ca2+ flux): > 100 µM
O=C(c1cc(Br)c(Br)s1)N1CC2CN3CCC2C1C3 (stereo not shown) [Example 51] | > 100 | –
COc1cccc2[nH]nc(C(=O)N3C[C@H]4C[N@]5CC[C@H]4[C@H]3C5)c12 [Example 95, ((3R,3aR,6S,7aS)-hexahydro-3,6-methanopyrrolo[2,3-c]pyridin-1(2H)-yl)(4-methoxy-1H-indazol-3-yl)methanone] | – | EC50 (Table 2, agonist Ca2+ flux): > 100 µM
O=C(c1cc2ccc(Cl)cc2s1)N1CC2CN3CCC2C1C3 (stereo not shown) [Example 71] | > 100 | –
Cn1cc(C(=O)N2C[C@H]3C[N@]4CC[C@H]3[C@H]2C4)c2ccccc21 [Example 91, ((3R,3aR,6S,7aS)-hexahydro-3,6-methanopyrrolo[2,3-c]pyridin-1(2H)-yl)(1-methyl-1H-indol-3-yl)methanone] | – | EC50 (Table 2, agonist Ca2+ flux): > 100 µM
O=C(c1cc(Br)c(Br)o1)N1CC2CN3CCC2C1C3 (stereo not shown) [Example 57] | > 100 | –
O=C(c1cc2ccccc2s1)N1C[C@H]2C[N@]3CC[C@H]2[C@H]1C3 [Example 89, benzo[b]thiophen-2-yl((3R,3aR,6S,7aS)-hexahydro-3,6-methanopyrrolo[2,3-c]pyridin-1(2H)-yl)methanone] | – | EC50 (Table 2, agonist Ca2+ flux): 18 µM
O=C(c1onc2ccccc12)N1CC2CN3CCC2C1C3 (stereo not shown) [Example 82] | > 100 | –
O=C(c1n[nH]c2ccccc12)N1C[C@H]2C[N@]3CC[C@H]2[C@H]1C3 [Example 88, ((3R,3aR,6S,7aS)-hexahydro-3,6-methanopyrrolo[2,3-c]pyridin-1(2H)-yl)(1H-indazol-3-yl)methanone] | – | EC50 (Table 2, agonist Ca2+ flux): 0.39 µM
O=C(c1sc2cc(F)ccc2c1Cl)N1CC2CN3CCC2C1C3 (stereo not shown) [Example 52] | > 100 | –
O=C(c1ccc(Cl)cc1)N1C[C@@H]2C[N@@]3CC[C@@H]2[C@@H]1C3 [Example 112, (4-chlorophenyl)((3S,3aS,6R,7aR)-hexahydro-3,6-methanopyrrolo[2,3-c]pyridin-1(2H)-yl)methanone] | – | EC50 (Table 3, agonist Ca2+ flux): > 100 µM
O=C(c1cc(Br)no1)N1CC2CN3CCC2C1C3 (stereo not shown) [Example 56] | > 100 | –
COc1cc(Br)cc2cc(C(=O)N3CC4CN5CCC4C3C5)oc12 (stereo not shown) [Example 60] | > 100 | –
O=C(c1cc(-c2ccccc2)no1)N1CC2CN3CCC2C1C3 (stereo not shown) [Example 62] | > 100 | –
Cc1c(Br)csc1C(=O)N1CC2CN3CCC2C1C3 (stereo not shown) [Example 65] | > 100 | –
O=C(c1cc2cccc(Cl)c2s1)N1C[C@@H]2C[N@@]3CC[C@@H]2[C@@H]1C3 [Example 108, 7-chlorobenzo[b]thiophen-2-yl((3S,3aS,6R,7aR)-hexahydro-3,6-methanopyrrolo[2,3-c]pyridin-1(2H)-yl)methanone] | – | EC50 (Table 3, agonist Ca2+ flux): > 100 µM
O=C(c1cc2c(C(F)(F)F)cccc2s1)N1CC2CN3CCC2C1C3 (stereo not shown) [Example 72] | > 100 | –
O=C(c1c[nH]c2ncc(Br)cc12)N1CC2CN3CCC2C1C3 (stereo not shown) [Example 80] | 38 | –
O=C(c1ccc(Br)o1)N1CC2CN3CCC2C1C3 (stereo not shown) [Example 7] | > 100 | –
